From US8361487B1, “Ant controllers and method for application thereof” (BASF Aktiengesellschaft, priority 1999, dated 2013) come the findings set out here.

The first assay deals with fireant (Solenopsis geminata). Briefly: Test Example 2: drench treatment of fireant nests. Format: in vivo. The following applies: 1 g of the active ingredient per one nest, 14 days after the treatment. The arrangement: key: A: Nest is completely destructed or activity of the nest is extremely low.; B: Activity of the nest is exhibited.; C: High activity of the nest is exhibited.; D: Activity of the nest is extremely high. On the procedure: The ant controller of the present invention was applied to nests (anthill) of fireant (Solenopsis geminata) with drench treatment, in terms of 1 g of the active ingredient per one nest. 14 Days after the treatment of the ant controller, the activity of the nests was evaluated according to the following criterion. The test was carried out with one block per one nest.
Consider `N#Cc1ccc(CC(NNC(=O)Nc2ccc(OC(F)(F)F)cc2)c2cccc(C(F)(F)F)c2)cc1` (stereo not shown) [Compound 96], for which the “activity of the nests (effect)” value was “A”.
Regarding `N#Cc1ccc(CC(=NNC(=O)Nc2ccc(OC(F)(F)F)cc2)c2cccc(C(F)(F)F)c2)cc1` [Compound 44], the “activity of the nests (effect)” value was “A”.

A further assay relates to Coptotermes formosanus Shiraki. In words: Test Example 1: termite-killing test on treated filter paper. Format: in vivo. The settings on record: mortality class; 1 ml of a 500 ppm solution on filter paper, seven days after inoculation, triplicate group of 10 insects. The procedure: A filter paper was spread in a glass dish having a diameter of 9 cm, onto which was dropped 1 ml of a 500 ppm solution of the ant controller of the present invention. Then, the filter paper was inoculated with Coptotermes formosanus Shiraki. Seven days after the inoculation, percentage of dead insects was investigated, from which mortality was calculated. The test was carried out with triplicate group of 10 insects.
Regarding `N#Cc1ccc(CC(NNC(=O)Nc2ccc(OC(F)(F)F)cc2)c2cccc(C(F)(F)F)c2)cc1` (stereo not shown) [Compound 96], the Termite-killing effect result is “A (100)”.
On to `O=C(NN=C(Cc1ccc(Cl)cc1)c1ccccc1)Nc1ccc(Cl)cc1` [Compound 3], for which the Termite-killing effect entry is given as “A (100)”.
In the case of `N#Cc1ccc(CC(=NNC(=O)Nc2ccc(OC(F)(F)F)cc2)c2cccc(Br)c2)cc1` [Compound 27], the Termite-killing effect entry is on record as “A (100)”.
Same read-out and setting: under `N#Cc1ccc(CN(N=CC(=O)Nc2ccc([S+]([O-])C(F)(F)F)cc2)c2cccc(Cl)c2)cc1` (stereo not shown) [Compound 133] stands “A (100)”; under `CC(=O)N(NC(=O)Nc1ccc(OC(F)(F)F)cc1)C(Cc1ccc(C#N)cc1)c1cccc(Cl)c1` (stereo not shown) [Compound 101], “A (100)”; under `CC(=NN(Cc1ccc(C#N)cc1)c1cccc(Cl)c1)C(=O)Nc1ccc(OC(F)(F)F)cc1` [Compound 140], “A (100)”.
The same measure, in the same setting: under `CC(C(=NNC(=O)Nc1ccc(OC(F)(F)F)cc1)c1ccccc1)c1ccccc1` (stereo not shown) [Compound 51] stands “A (100)”; under `O=C(CNN(Cc1ccc(Cl)cc1)c1cccc(Cl)c1)Nc1ccc(Cl)cc1` [Compound 147], “A (100)”.
`N#Cc1ccc(CN(NCC(=O)Nc2ccc(OC(F)(F)F)cc2)c2cccc(F)c2)cc1` [Compound 154]: the Termite-killing effect result was “B (99-90)”.
Regarding `N#Cc1ccc(CN(N=CC(=O)Nc2ccc(Cl)cc2)c2cccc(C(F)(F)F)c2)cc1` [Compound 138], the Termite-killing effect entry is “A (100)”.
For the molecule `CC(C)OC(C(=NNC(=O)Nc1ccc(OC(F)(F)F)cc1)c1ccccc1)c1ccccc1` (racemic) [Compound 69], the Termite-killing effect result is on record as “B (99-90)”.
As for `N#Cc1ccc(CC(=NNC(=O)Nc2ccc(S(=O)(=O)C(F)(F)F)cc2)c2cccc(Br)c2)cc1` [Compound 30], the Termite-killing effect result is “A (100)”.
Same read-out and setting: for `Cc1cccc(C(Cc2ccc(C#N)cc2)=NNC(=O)Nc2ccc(OC(F)(F)F)cc2)c1` [Compound 41] the value was “A (100)”; for `O=C(C=NN(Cc1ccc(Cl)cc1)c1ccccc1)Nc1ccc(OC(F)(F)F)cc1` [Compound 123], “A (100)”.
`Cc1cccc(C(Cc2ccccc2)=NNC(=O)Nc2ccc(Cl)cc2)c1` [Compound 38]: the Termite-killing effect result is given as “B (99-90)”.
On the same count and under the same terms, under `O=C(NN=C(Cc1ccccc1)c1ccccc1)Nc1ccc(Cl)cc1` [Compound 1] stands “A (100)”.
For `O=C(NN=C(Cc1ccccc1)c1ccccc1)Nc1ccc(OC(F)(F)F)cc1` [Compound 2], the Termite-killing effect result was “B (99-90)”.
The same measure, in the same setting: under `O=C(NN=C(c1ccccc1)C(OC(=O)c1ccccc1)c1ccccc1)Nc1ccc(OC(F)(F)F)cc1` (racemic) [Compound 73] stands “A (100)”.
In the case of `N#Cc1ccc(CC(=NNC(=O)Nc2ccc(OC(F)(F)F)cc2)c2cccc(C(F)(F)F)c2)cc1` [Compound 44], the Termite-killing effect result is “C (89-80)”.
As to `Cc1cccc(C(Cc2ccccc2)=NNC(=O)Nc2ccc(OC(F)(F)F)cc2)c1` [Compound 39], the Termite-killing effect result is listed as “A (100)”.
On the same count and under the same terms, for `Cc1cccc(N(Cc2ccc(C#N)cc2)NCC(=O)Nc2ccc(OC(F)(F)F)cc2)c1` [Compound 156] the value was “B (99-90)”; for `N#Cc1ccc(CC(=NNC(=O)Nc2ccc(OC(F)(F)F)cc2)c2cccc(I)c2)cc1` [Compound 37], “A (100)”; for `N#Cc1ccc(CC(=NNC(=O)Nc2ccc([S+]([O-])C(F)(F)F)cc2)c2cccc(F)c2)cc1` (stereo not shown) [Compound 77], “A (100)”.
On the same count and under the same terms, for `O=C(NN=C(Cc1ccc(Cl)cc1)c1cccc(F)c1)Nc1ccc(Cl)cc1` [Compound 34] the value was “A (100)”; for `N#Cc1ccc(CN(N=CC(=O)Nc2ccc(Cl)cc2)c2cccc(F)c2)cc1` [Compound 134], “A (100)”; for `CN(C(=O)C=NN(Cc1ccc(C#N)cc1)c1cccc(C(F)(F)F)c1)c1ccc(Cl)cc1` [Compound 141], “D (79-50)”.
Same read-out and setting: for `N#Cc1ccc(CC(NNC(=O)Nc2ccc(OC(F)(F)F)cc2)c2ccccc2)cc1` (racemic) [Compound 87] the value was “C (89-80)”; for `N#Cc1ccc(CC(NNC(=O)Nc2ccc(SC(F)(F)F)cc2)c2cccc(F)c2)cc1` (stereo not shown) [Compound 115], “A (100)”; for `N#Cc1ccc(CC(NNC(=O)Nc2ccc(SC(F)(F)F)cc2)c2cccc(Cl)c2)cc1` (stereo not shown) [Compound 92], “A (100)”.
Consider `N#Cc1ccc(CC(=NNC(=O)Nc2ccc(Cl)cc2)c2cccc(I)c2)cc1` [Compound 36], for which the Termite-killing effect entry is given as “B (99-90)”.
The same measure, in the same setting: under `CC(C(=NNC(=O)Nc1ccc(Br)cc1)c1ccccc1)c1ccccc1` (stereo not shown) [Compound 49] stands “C (89-80)”; under `O=C(NN=C(c1ccccc1)C(O)c1ccc(Cl)cc1)Nc1ccc(Cl)cc1` (stereo not shown) [Compound 59], “C (89-80)”.
On the same count and under the same terms, for `N#Cc1ccc(C(O)C(=NNC(=O)Nc2ccc(OC(F)(F)F)cc2)c2ccccc2)cc1` (racemic) [Compound 63] the value was “A (100)”; for `N#Cc1ccc(CN(N=CC(=O)Nc2ccc(OC(F)(F)F)cc2)c2ccccc2)cc1` [Compound 125], “A (100)”; for `O=C(C=NN(Cc1ccc(Cl)cc1)c1cccc(Cl)c1)Nc1ccc(Cl)cc1` [Compound 126], “A (100)”.
With `O=C(NNC(Cc1ccc(Br)cc1)c1ccccc1)Nc1ccc(OC(F)(F)F)cc1` (stereo not shown) [Compound 111], the Termite-killing effect entry was “D (79-50)”.
In the case of `O=C(NN=C(Cc1ccc(Cl)cc1)c1ccccc1)Nc1ccc(OC(F)(F)F)cc1` [Compound 4], the Termite-killing effect result is reported as “A (100)”.
On to `N#Cc1ccc(CC(=NNC(=O)Nc2ccc(Cl)cc2)c2ccccc2)cc1` [Compound 5], for which the Termite-killing effect result is listed as “A (100)”.
Same read-out and setting: for `O=C(NNC(Cc1ccc([N+](=O)[O-])cc1)c1ccccc1)Nc1ccc(OC(F)(F)F)cc1` (racemic) [Compound 88] the value was “A (100)”.
`N#Cc1ccc(CN(NCC(=O)Nc2ccc(OC(F)(F)F)cc2)c2cccc(Cl)c2)cc1` [Compound 152]: the Termite-killing effect entry is “B (99-90)”.
As to `O=C(C=NN(Cc1ccc([N+](=O)[O-])cc1)c1cccc(Cl)c1)Nc1ccc(OC(F)(F)F)cc1` [Compound 129], the Termite-killing effect entry is “A (100)”.
Same read-out and setting: for `CC(C(=NNC(=O)Nc1ccc(OC(F)(F)F)cc1)c1ccccc1)c1ccccc1` (mixture of isomers) [Compound 50] the value was “A (100)”; for `CN(N=C(c1ccccc1)C(O)c1ccccc1)C(=O)Nc1ccc(Cl)cc1` (racemic) [Compound 74], “A (100)”.
On the same count and under the same terms, for `N#Cc1ccc(CC(=NNC(=O)Nc2ccc(S(=O)(=O)C(F)(F)F)cc2)c2cccc(Cl)c2)cc1` [Compound 23] the value was “A (100)”.
As for `N#Cc1ccc(CN(NCC(=O)Nc2ccc(OC(F)(F)F)cc2)c2cccc(C(F)(F)F)c2)cc1` [Compound 158], the Termite-killing effect entry is given as “C (89-80)”.
Still for that read-out and setting: under `N#Cc1ccc(CN(N=CC(=O)Nc2ccc(SC(F)(F)F)cc2)c2cccc(Cl)c2)cc1` [Compound 132] stands “A (100)”; under `N#Cc1ccc(CC(NNC(=S)Nc2ccc(OC(F)(F)F)cc2)c2cccc(Cl)c2)cc1` (stereo not shown) [Compound 99], “A (100)”; under `O=C(NN=C(Cc1ccccc1)c1cccc(Br)c1)Nc1ccc(OC(F)(F)F)cc1` [Compound 25], “D (79-50)”.
With `CC(C)COC(C(=NNC(=O)Nc1ccc(OC(F)(F)F)cc1)c1ccccc1)c1ccccc1` (racemic) [Compound 71], the Termite-killing effect entry was “A (100)”.
Still for that read-out and setting: for `CC(C(=NNC(=O)Nc1ccc(Cl)cc1)c1ccccc1)c1ccc(Cl)cc1` (stereo not shown) [Compound 53] the value was “B (99-90)”.
Take `N#Cc1ccc(CC(=NNC(=O)Nc2ccc([S+]([O-])C(F)(F)F)cc2)c2cccc(Cl)c2)cc1` (stereo not shown) [Compound 22]: the Termite-killing effect result is “B (99-90)”.
On the same count and under the same terms, under `CC(C(=NNC(=O)Nc1ccc(OC(F)(F)F)cc1)c1cccc(Cl)c1)c1ccc(C#N)cc1` (stereo not shown) [Compound 56] stands “A (100)”.
Regarding `N#Cc1ccc(CC(NNC(=S)Nc2ccc(OC(F)(F)F)cc2)c2cccc(C(F)(F)F)c2)cc1` (stereo not shown) [Compound 100], the Termite-killing effect entry is “A (100)”.
Same read-out and setting: for `N#Cc1ccc(CC(=NNC(=O)Nc2ccc(SC(F)(F)F)cc2)c2cccc(Br)c2)cc1` [Compound 28] the value was “C (89-80)”.
Same read-out and setting: for `O=C(NNC(Cc1ccc(F)cc1)c1ccccc1)Nc1ccc(OC(F)(F)F)cc1` (stereo not shown) [Compound 109] the value was “C (89-80)”.
On to `N#Cc1ccc(CN(N=CC(=O)Nc2ccc(OC(F)(F)F)cc2)c2cccc(F)c2)cc1` [Compound 135], for which the Termite-killing effect result is recorded as “B (99-90)”.
For the molecule `CC(=O)OC(C(=NNC(=O)Nc1ccc(OC(F)(F)F)cc1)c1ccccc1)c1ccccc1` (racemic) [Compound 72], the Termite-killing effect entry was “A (100)”.
As for `O=C(CNN(Cc1ccc([N+](=O)[O-])cc1)c1cccc(Cl)c1)Nc1ccc(OC(F)(F)F)cc1` [Compound 150], the Termite-killing effect entry is “C (89-80)”.
`N#Cc1ccc(CN(N=CC(=O)Nc2ccc(OC(F)(F)F)cc2)c2cccc(Cl)c2)cc1` [Compound 131]: the Termite-killing effect result is “C (89-80)”.
